According to publication PMC11040670, “Mechanistic and Kinetic Insights into Cellular Uptake of Biomimetic Dinitrosyl Iron Complexes and Intracellular Delivery of NO for Activation of Cytoprotective HO-1” (JACS Au, 2024):
Marks after values point to notes of the source that are not given here.

Legend:
deoxyMb = test: Direct transfer of NO to deoxyMb yielding MbNO (UV–vis); type: biochemical; details: deoxyMb 5 μM/Cys 200 μM, generated [(NO)2Fe(SR)(SCys)]n−, phosphate buffer (pH 7.4), anaerobic
Experimental: After addition of 30 μL of 500 μM stock solution of DNIC–COOH (in DMSO) to a 4 mL quartz cuvette containing 5 μM metMb and 200 μM Cys in 3 mL of 25 mM PBS (pH 7.4), UV–vis spectra for this mixture solution were measured every 30 min. Transformation of […] into MbNO was achieved after reaction for 4 h based on the complete shift of UV–vis absorption bands from (410, 502, and 629) nm to (419, 548, and 578) nm.
Reactions of (a) 5 μM of DNIC–COOMe with 5 μM of metMb in the presence of 200 μM of Cys, (b) 5 μM of DNIC–COOH/DNIC–COOMe with 5 μM of deoxyMb in the presence of 200 μM of Cys, and (c) 5 μM of DNIC–COOH/DNIC–COOMe with 5 μM of metMb in the presence of 50 mg/mL BSA were performed under a similar manner.

MSC = test: Intracellular release of NO (DAF-FM fluorescence) in MSC; type: cell-based, human; details: 100 μM DNIC–COOH or 2.5 μM DNIC–COOMe
Experimental: Intracellular release of NO by DNIC–COOH was validated using the fluorescence probe 4-amino-5-methylamino-2′,7′-difluorofluorescein diacetate (DAF-FM) in combination with fluorescence analysis techniques. Briefly, the MSC cells (or N2a and HCEC cells) were seeded onto a 96-well black plate at a density of 6 × 10^3 cells/well (or 1 × 10^4 cells/well for N2a and 8 × 10^3 cells/well for HCEC cells) and incubated at 37 °C overnight. On the next day, the MSC cells were first treated with 10 μM of DAF-FM (or 5 μM for N2a and HCEC cells) and incubated at 37 °C for 0.5 h. […] Fluorescence intensity of the cells was then recorded using a microplate reader (SpectraMax iD3, Molecular Devices, San Jose, CA) with an excitation wavelength at 485 nm and an emission wavelength at 525 nm. Three independent experiments were executed to measure the time-dependent change of average fluorescence intensity. Time-dependent change of average fluorescence intensity for the MSC/N2a/HCEC cells with sequential treatment of DAF-FM (10 μM for MSC cells, 5 μM for N2a cells, 5 μM for HCEC cells; 0.5 h) and DNIC–COOMe (2.5 μM for MSC cells, 10 μM for N2a cells, 1 μM for HCEC cells) was determined in a similar manner. […]

Row | SMILES | reaction time for complete conversion of deoxyMb into MbNO (deoxyMb) | reaction time for complete conversion of deoxyMb into MbNO (deoxyMb; listed as DNIC-COOH) [h] | tmax for intracellular release of NO (MSC) [h] | reaction time for complete conversion of deoxyMb into MbNO (deoxyMb; listed as DNIC-COOMe) [h]
1 | O=[N][Fe]1([N]=O)[SH](CCC(=O)O)[Fe]([N]=O)([N]=O)[SH]1CCC(=O)O (stereo not drawn) [DNIC–COOH, [(NO)2Fe(μ-SCH2CH2COOH)2Fe(NO)2]] | 3.5 ^f h | 3.5 | 4 | –
2 | COC(=O)CC[SH]1[Fe]([N]=O)([N]=O)[SH](CCC(=O)OC)[Fe]1([N]=O)[N]=O (stereo not drawn) [DNIC–COOMe, [(NO)2Fe(μ-SCH2CH2COOCH3)2Fe(NO)2]] | 2.0 ^f h | – | 1 | 2.0
